The results in this text go back to patent publication US10246429B2, “Vinyl fluoride cyclopropyl fused thiazin-2-amine compounds as beta-secretase inhibitors and methods of use” (AMGEN INC., priority 2015, dated 2019).

Assay [1] concerns the target T1, BACE1 (Homo sapiens (Human), UniProt P56817). The experiment in a line: In vitro enzymatic BACE1 FRET assay. The assay is classed as biochemical.
Target sequence in this assay (P56817 46-501): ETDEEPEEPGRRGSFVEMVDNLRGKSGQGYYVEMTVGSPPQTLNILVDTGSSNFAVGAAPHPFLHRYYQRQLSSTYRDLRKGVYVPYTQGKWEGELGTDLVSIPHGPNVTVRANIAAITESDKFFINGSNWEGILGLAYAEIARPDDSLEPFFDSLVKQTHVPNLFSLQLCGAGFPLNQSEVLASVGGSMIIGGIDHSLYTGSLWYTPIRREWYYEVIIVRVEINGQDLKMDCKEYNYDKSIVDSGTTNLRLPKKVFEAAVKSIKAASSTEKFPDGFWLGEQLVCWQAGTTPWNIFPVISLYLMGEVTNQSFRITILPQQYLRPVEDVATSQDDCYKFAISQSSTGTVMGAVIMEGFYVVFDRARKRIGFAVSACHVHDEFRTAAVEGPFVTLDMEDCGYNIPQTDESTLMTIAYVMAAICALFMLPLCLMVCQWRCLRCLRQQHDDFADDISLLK
Source text: (§1) In Vitro Enzymatic BACE1 and BACE2 FRET (Fluorescence Resonance Energy Transfer) Assays (Enzyme Assay Data in Table 1)
The target of assay [2] is T1, BACE1. The experiment in a line: BACE1 cell assay. The assay is classed as cell-based.
Target sequence in this assay (P56817 46-501, species assumed): as the sequence (P56817 46-501) above
The target in assay [3] is BACE2 (Homo sapiens (Human), UniProt Q9Y5Z0). Description: In vitro enzymatic BACE2 FRET assay. The format is biochemical.
Chain of BACE2 (Q9Y5Z0 63-518): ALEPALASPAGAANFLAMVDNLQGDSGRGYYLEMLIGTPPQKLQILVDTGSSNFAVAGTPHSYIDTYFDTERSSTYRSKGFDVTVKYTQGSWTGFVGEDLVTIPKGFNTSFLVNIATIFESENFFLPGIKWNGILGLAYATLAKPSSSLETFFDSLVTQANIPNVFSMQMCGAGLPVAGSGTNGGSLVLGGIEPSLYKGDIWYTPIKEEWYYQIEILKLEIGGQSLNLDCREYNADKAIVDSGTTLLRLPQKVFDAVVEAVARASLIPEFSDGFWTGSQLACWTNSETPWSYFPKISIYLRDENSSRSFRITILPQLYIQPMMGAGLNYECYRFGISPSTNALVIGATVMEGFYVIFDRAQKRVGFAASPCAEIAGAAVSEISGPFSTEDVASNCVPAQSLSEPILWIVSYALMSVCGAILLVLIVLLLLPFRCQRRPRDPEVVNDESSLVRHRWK
Source text: as §1
The target in assay [4] is Cathepsin D (CatD) (Homo sapiens (Human), UniProt P07339). The experiment in a line: CatD assay. The assay is classed as biochemical. The conditions noted are these: read-out: IC50 IP (μM) CatD.
Chain of Cathepsin D (CatD) (P07339 65-412, species assumed): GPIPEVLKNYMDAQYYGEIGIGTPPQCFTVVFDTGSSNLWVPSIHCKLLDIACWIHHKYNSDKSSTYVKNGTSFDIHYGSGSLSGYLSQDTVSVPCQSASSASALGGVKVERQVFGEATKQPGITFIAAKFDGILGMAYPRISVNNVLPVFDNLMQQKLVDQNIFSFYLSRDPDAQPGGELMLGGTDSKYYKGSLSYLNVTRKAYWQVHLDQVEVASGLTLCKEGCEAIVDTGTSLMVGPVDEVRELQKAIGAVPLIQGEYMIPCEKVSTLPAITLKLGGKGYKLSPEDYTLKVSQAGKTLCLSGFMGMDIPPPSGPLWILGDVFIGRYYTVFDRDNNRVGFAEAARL
Where [5] appears, read: read-out: IC50 IP (μM) BACE1 Enzyme.
[6] abbreviates: read-out: IC50 IP (μM) BACE1 Cell.
[7] abbreviates: read-out: IC50 IP (μM) BACE2 Enzyme.

Read-outs that look alike come from different tables or passages of the source.

In the case of `C[C@]1(c2cc(/C=C(\F)c3ccc(C#N)cn3)ccc2F)N=C(N)S[C@@]2(C(=O)N3CCOC4(CC4)C3)C[C@H]21` [Example 318, 6-((Z)-2-(3-((1S,5S,6S)-3-amino-5-methyl-1-(4-oxa-7-azaspiro[2.5]octane-7-carbonyl)-2-thia-4-azabicyclo[4.1.0]hept-3-en-5-yl)-4-fluorophenyl)-1-fluorovinyl)nicotinonitrile], the IC50 in assay [1] (setting [5]) turned out to be 0.0029 µM; in assay [2] (setting [6]), 0.0033 µM; in assay [3] (setting [7]) it was 0.051 µM; in assay [4], 108 µM.

For the compound `C[C@]1(c2cc(/C=C(\F)c3ccc(C#N)cn3)ccc2F)N=C(N)S[C@@]2(C(=O)N3CC4CCC(C3)O4)C[C@H]21` [Example 319], the IC50 worked out at 0.0025 µM in assay [1] (setting [5]), 0.0017 µM in assay [2] (setting [6]), 0.097 µM in assay [3] (setting [7]) and 318 µM in assay [4].

On to `C[C@]1(c2cc(/C=C(\F)c3ccc(C#N)cn3)ccc2F)N=C(N)S[C@@]2(C(=O)N3CC4(CCOCC4)C3)C[C@H]21` [Example 320, 6-((Z)-2-(3-((1S,5S,6S)-3-amino-5-methyl-1-(7-oxa-2-azaspiro[3.5]nonane-2-carbonyl)-2-thia-4-azabicyclo[4.1.0]hept-3-en-5-yl)-4-fluorophenyl)-1-fluorovinyl)nicotinonitrile], for which the IC50 in assay [1] (setting [5]) came to 0.0052 µM; in assay [2] (setting [6]), 0.0024 µM; in assay [3] (setting [7]), 0.039 µM; in assay [4], 292 µM.

Consider `C[C@H]1CN(C(=O)[C@]23C[C@H]2[C@@](C)(c2cc(/C=C(\F)c4ccc(C#N)cn4)ccc2F)N=C(N)S3)CCO1` [Example 321, 6-((Z)-2-(3-((1S,5S,6S)-3-amino-5-methyl-1-((S)-2-methylmorpholine-4-carbonyl)-2-thia-4-azabicyclo[4.1.0]hept-3-en-5-yl)-4-fluorophenyl)-1-fluorovinyl)nicotinonitrile], for which the IC50 is 0.0035 µM in assay [1] (setting [5]), 0.0027 µM in assay [2] (setting [6]), 0.111 µM in assay [3] (setting [7]) and 578 µM in assay [4].

In the case of `CC(C)[C@@H]1COCCN1C(=O)[C@]12C[C@H]1[C@@](C)(c1cc(/C=C(\F)c3ccc(C#N)cn3)ccc1F)N=C(N)S2` [Example 322, 6-((Z)-2-(3-((1S,5S,6S)-3-amino-1-((R)-3-isopropylmorpholine-4-carbonyl)-5-methyl-2-thia-4-azabicyclo[4.1.0]hept-3-en-5-yl)-4-fluorophenyl)-1-fluorovinyl)nicotinonitrile], the IC50 in assay [1] (setting [5]) came to 0.0021 µM; in assay [2] (setting [6]), 0.0026 µM; in assay [3] (setting [7]) it was 0.03 µM; in assay [4], 27.8 µM.

Consider `C[C@H]1CN(C(=O)[C@]23C[C@H]2[C@@](C)(c2cc(/C=C(\F)c4ccc(C#N)cn4)ccc2F)N=C(N)S3)C[C@H](C)O1` [Example 323, 6-((Z)-2-(3-((1S,5S,6S)-3-amino-1-((2S,6S)-2,6-dimethylmorpholine-4-carbonyl)-5-methyl-2-thia-4-azabicyclo[4.1.0]hept-3-en-5-yl)-4-fluorophenyl)-1-fluorovinyl)nicotinonitrile], for which the IC50 in assay [1] (setting [5]) amounted to 0.0031 µM; in assay [2] (setting [6]), 0.0026 µM; in assay [3] (setting [7]) it was 0.192 µM; in assay [4], 411 µM.

In the case of `C[C@]1(c2cc(/C=C(\F)c3ccc(C#N)cn3)ccc2F)N=C(N)S[C@@]2(C(=O)N3CCC(F)(F)CC3)C[C@H]21` [Example 325, 6-((Z)-2-(3-((1S,5S,6S)-3-amino-1-(4,4-difluoropiperidine-1-carbonyl)-5-methyl-2-thia-4-azabicyclo[4.1.0]hept-3-en-5-yl)-4-fluorophenyl)-1-fluorovinyl)nicotinonitrile], the IC50 in assay [1] (setting [5]) stood at 0.0019 µM; in assay [2] (setting [6]) it was 0.0042 µM; in assay [3] (setting [7]), 0.089 µM; in assay [4], 446 µM.

On to `C[C@]1(c2cc(/C=C(\F)c3ccc(C#N)cn3)ccc2F)N=C(N)S[C@@]2(C(=O)N3CCC(F)CC3)C[C@H]21` [Example 326, 6-((Z)-2-(3-((1S,5S,6S)-3-amino-1-(4-fluoropiperidine-1-carbonyl)-5-methyl-2-thia-4-azabicyclo[4.1.0]hept-3-en-5-yl)-4-fluorophenyl)-1-fluorovinyl)nicotinonitrile], for which the IC50 amounted to 0.0016 µM in assay [1] (setting [5]), 0.0022 µM in assay [2] (setting [6]), 0.045 µM in assay [3] (setting [7]) and 648 µM in assay [4].

On to `C[C@]1(c2cc(/C=C(\F)c3ccc(C#N)cn3)ccc2F)N=C(N)S[C@@]2(C(=O)N3CCC4(CCO4)C3)C[C@H]21` (stereo partly drawn) [Example 327, 6-((Z)-2-(3-((1S,5S,6S)-3-amino-5-methyl-1-(1-oxa-6-azaspiro[3.4]octane-6-carbonyl)-2-thia-4-azabicyclo[4.1.0]hept-3-en-5-yl)-4-fluorophenyl)-1-fluorovinyl)nicotinonitrile], for which the IC50 in assay [1] (setting [5]) came out at 0.0008 µM; in assay [2] (setting [6]), 0.0003 µM; in assay [3] (setting [7]), 0.028 µM; in assay [4], 143 µM.

As to `COC[C@H]1COCCN1C(=O)[C@]12C[C@H]1[C@@](C)(c1cc(/C=C(\F)c3ccc(C#N)cn3)ccc1F)N=C(N)S2` [Example 328, 6-((Z)-2-(3-((1S,5S,6S)-3-amino-1-((S)-3-(methoxymethyl)morpholine-4-carbonyl)-5-methyl-2-thia-4-azabicyclo[4.1.0]hept-3-en-5-yl)-4-fluorophenyl)-1-fluorovinyl)nicotinonitrile], the IC50 in assay [1] (setting [5]) is 0.0023 µM; in assay [2] (setting [6]), 0.0019 µM; in assay [3] (setting [7]), 0.085 µM; in assay [4], 40.3 µM.

Regarding `C[C@H]1CN(C(=O)[C@]23C[C@H]2[C@@](C)(c2cc(/C=C(\F)c4ccc(C#N)cn4)ccc2F)N=C(N)S3)[C@@H](C)CO1` [Example 329, 6-((Z)-2-(3-((1S,5S,6S)-3-amino-1-((2S,5S)-2,5-dimethylmorpholine-4-carbonyl)-5-methyl-2-thia-4-azabicyclo[4.1.0]hept-3-en-5-yl)-4-fluorophenyl)-1-fluorovinyl)nicotinonitrile], the IC50 was 0.0045 µM in assay [1] (setting [5]), 0.0035 µM in assay [2] (setting [6]), 0.124 µM in assay [3] (setting [7]) and 73.9 µM in assay [4].

Consider `C[C@@H]1CN(C(=O)[C@]23C[C@H]2[C@@](C)(c2cc(/C=C(\F)c4ccc(C#N)cn4)ccc2F)N=C(N)S3)[C@H](C)CO1` [Example 330, 6-((Z)-2-(3-((1S,5S,6S)-3-amino-1-((2R,5R)-2,5-dimethylmorpholine-4-carbonyl)-5-methyl-2-thia-4-azabicyclo[4.1.0]hept-3-en-5-yl)-4-fluorophenyl)-1-fluorovinyl)nicotinonitrile], for which the IC50 in assay [1] (setting [5]) was determined as 0.0086 µM; in assay [2] (setting [6]), 0.0177 µM; in assay [3] (setting [7]), 0.239 µM; in assay [4] it was 138 µM.

As to `C[C@]1(c2cc(/C=C(\F)c3ccc(C#N)cn3)ccc2F)N=C(N)S[C@@]2(C(=O)N3CCOCC34CCC4)C[C@H]21` [Example 331, 6-((Z)-2-(3-((1S,5S,6S)-3-amino-5-methyl-1-(8-oxa-5-azaspiro[3.5]nonane-5-carbonyl)-2-thia-4-azabicyclo[4.1.0]hept-3-en-5-yl)-4-fluorophenyl)-1-fluorovinyl)nicotinonitrile], the IC50 in assay [1] (setting [5]) stood at 0.0013 µM; in assay [2] (setting [6]) it was 0.0032 µM; in assay [3] (setting [7]) it was 0.061 µM; in assay [4], 8.9 µM.

In the case of `CC1(C)COCCN1C(=O)[C@]12C[C@H]1[C@@](C)(c1cc(/C=C(\F)c3ccc(C#N)cn3)ccc1F)N=C(N)S2` [Example 332, 6-((Z)-2-(3-((1S,5S,6S)-3-amino-1-(3,3-dimethylmorpholine-4-carbonyl)-5-methyl-2-thia-4-azabicyclo[4.1.0]hept-3-en-5-yl)-4-fluorophenyl)-1-fluorovinyl)nicotinonitrile], the IC50 worked out at 0.0023 µM in assay [1] (setting [5]), 0.0026 µM in assay [2] (setting [6]), 0.109 µM in assay [3] (setting [7]) and 117 µM in assay [4].

As for `CC[C@H]1COCCN1C(=O)[C@]12C[C@H]1[C@@](C)(c1cc(/C=C(\F)c3ccc(C#N)cn3)ccc1F)N=C(N)S2` [Example 334, 6-((Z)-2-(3-((1S,5S,6S)-3-amino-1-((S)-3-ethylmorpholine-4-carbonyl)-5-methyl-2-thia-4-azabicyclo[4.1.0]hept-3-en-5-yl)-4-fluorophenyl)-1-fluorovinyl)nicotinonitrile], the IC50 is 0.0064 µM in assay [1] (setting [5]), 0.0041 µM in assay [2] (setting [6]), 0.146 µM in assay [3] (setting [7]) and 19 µM in assay [4].

As to `C[C@]1(c2cc(/C=C(\F)c3ccc(C#N)cn3)ccc2F)N=C(N)S[C@@]2(C(=O)N3CCOC[C@@H]3CO)C[C@H]21` [Example 335], the IC50 in assay [1] was determined as 0.0028 µM; in assay [2] it was 0.0026 µM; in assay [3], 0.186 µM; in assay [4], 148 µM.

`C[C@H]1[C@H](O)CCN1C(=O)[C@]12C[C@H]1[C@@](C)(c1cc(/C=C(\F)c3ccc(C#N)cn3)ccc1F)N=C(N)S2` [Example 336, 6-((Z)-2-(3-((1S,5S,6S)-3-amino-1-((2S,3R)-3-hydroxy-2-methylpyrrolidine-1-carbonyl)-5-methyl-2-thia-4-azabicyclo[4.1.0]hept-3-en-5-yl)-4-fluorophenyl)-1-fluorovinyl)nicotinonitrile]: the IC50 in assay [1] (setting [5]) was 0.0013 µM; in assay [2] (setting [6]), 0.0005 µM; in assay [3] (setting [7]), 0.055 µM; in assay [4], 151 µM.

Regarding `C[C@]1(c2cc(/C=C(\F)c3ccc(C#N)cn3)ccc2F)N=C(N)S[C@@]2(C(=O)N3CCCC3c3ccccc3)C[C@H]21` (stereo partly drawn) [Example 337, 6-((Z)-2-(3-((1S,5S,6S)-3-amino-5-methyl-1-(2-phenylpyrrolidine-1-carbonyl)-2-thia-4-azabicyclo[4.1.0]hept-3-en-5-yl)-4-fluorophenyl)-1-fluorovinyl)nicotinonitrile], the IC50 in assay [1] (setting [5]) amounted to 0.0044 µM; in assay [2] (setting [6]) it was 0.01 µM; in assay [3] (setting [7]), 0.046 µM; in assay [4] it was 2.4 µM.
